Here are results for eleven compounds from patent US7892830B2, “Clonal culture of human pluripotent stem cells” (Wisconsin Alumni Research Foundation, priority 2007, dated 2011).

Counter-ions that a name gives are not always drawn.

Assay [1] concerns H1 human ES cells. The assay is described as follows: Fluorometric high-throughput ALP (DiFMUP) screen for colony formation, 96-well. The class given is cell-based. Particulars: 10 μM, 500 cells per well, TeSR1, a typical hit read above 200,000. How it is done: The screen was conducted using a fluorescent, high-throughput assay to screen small molecules for their ability to enhance cloning efficiency. A soluble, non-fluorescent substrate (6,8-difluoro-4-methylumbelliferyl phosphate, DiFMUP) was converted to a fluorescent product by an enzyme specific for undifferentiated, human ES cells called alkaline phosphatase (ALP).
In wells that had colonies larger than 2,000 cells, and which formed 12 days after seeding 500 individualized human ES cells in a 96-well plate, increased fluorescence from DiFMUP hydrolyzed by ALP indicated any well that contained a compound that enabled colony formation. […] Thus, this assay tested both for clonal propagation and for maintenance of undifferentiated status.
The screen used a small molecule library made up of characterized compounds with known bioactivity that was purchased from Sigma-Aldrich (St. Louis, Mo.). Members of the library were dissolved in DMSO to a concentration of 1 mM. All other chemicals used were purchased from Sigma, unless otherwise indicated in the text. H1 human ES cells (WiCell Research Institute; Madison, Wis.) were grown in the defined TeSR™1 medium, which was prepared as described in Ludwig et al., supra.
The assay was performed at the Keck-UWCCC Small Molecule Screening Facility (University of Wisconsin—Madison; Madison, Wis.) in 96-well microplates (Nunclon/Nunc; Roskilde, Denmark) using a Beckman Biomek® FX Laboratory Workstation and a Perkin Elmer VictorIII® Plate Reader. The microplates were coated with Matrigel® (#354230, growth factor reduced; BD Bioscience; San Jose, Calif.) at 0.3 mg/ml in DMEM/F12 (Invitrogen; Carlsbad, Calif.) for 1 hour at room temperature.
H1 human ES cells were grown in 6-well Nunclon® dishes to day 5, and then treated with 1 ml Trypsin/EDTA (Invitrogen) containing 1% chick serum for 5 minutes at 37° C. Trypsin was quenched with 20% FBS in DMEM/F12, and the cells were collected by centrifugation for 1.5 minutes at 200 RCF. After aspiration of the medium, cells were re-suspended in TeSR™1 medium to a density of 5,000 cells per ml. Of this cell suspension, 100 μL was dispensed into each well, and 1 μL of a […] DMSO solution of inhibitor was added and mixed by pipetting, resulting in a final inhibitor concentration of 10 μM. The plates were incubated at 5% CO2 at 37° C. for 2 days. Then, the medium was exchanged with TeSR™1 medium not having the cloning molecule. […]
To detect colony formation, we used a fluorometric, ALP assay (EnzChek®; Invitrogen). […] In wells that had colonies, increased fluorescence indicated any well containing a compound that led to colony formation. […] Plates were read by a multi-plate reader (excitation 355 nm, emission 455 nm, at 0.1 ms emission intervals).

Assay [2] concerns H1 human ES cells. The assay can be described thus: 6-well cloning efficiency assay in TeSR1 medium on Matrigel, colonies counted manually. The class given is cell-based. Particulars: for confirmation in 6-well assay as active in increasing cloning efficiency: 6-well plates, varying concentrations; for max. CE (%): cloning efficiency = CFU per number of plated single cells. The text has this: As described above, a difficulty in growing pluripotent cells, like ES cells, in culture is their low cloning efficiency. As used herein, “cloning efficiency” means a number of cells individualized by trypsin that form new ES cell colonies divided by the number of individual cells plated in a well of a culture dish. In our prior experience with growing human ES cells in defined and animal-free conditions on a matrix (e.g., Matrigel®), cloning efficiency was very low (i.e., less than 0.1%). This contrasts with prior experience using culture systems based on medium conditioned by exposure to fibroblasts, where the cloning efficiency, while still low (i.e., less than 2%), was high enough to initiate clonal ES cell colonies. As disclosed herein, the addition of a small molecule to the culture medium in which human ES cells are grown permits the ES cell cultures to be clonally cultivated in a manner that is extremely difficult without the addition of the small molecule. Several small molecules are exemplified herein for this purpose.
For these assays, 10,000 cells per well were plated on Matrigel®—coated plates and then treated every other day for a total of four days. with the small molecules as described above. To evaluate the effect of the tested small molecules on cloning efficiency, we manually counted colonies after 10 days.
We determined cloning efficiency (CE; the number of colony forming units (CFU) per number of plated single cells, trypsin/EDTA treated). HA-100 was the first molecule identified in the small molecule screen, following which other structurally similar small molecules were also tested for cloning efficiency.

For a further assay, the system named is PKG. Particulars: cited from earlier work.
For a further assay, the system named is PKC. Particulars: cited from earlier work.
Another assay has as its system PKA. As to conditions: cited from earlier work.
The subject of a further assay is ROCK1/ROCK2. Particulars: read-out: IC50 ROCK1/ROCK2; competing with ATP; cited from earlier work.
In assay [3] the test system is H1 human ES cells. The assay can be described thus: Example 2 colony formation with ROCK inhibitors, ALP assay and examination by eye. The class given is cell-based. Particulars: for concentration showing the most colony formation with the ALP assay: tested 5 nM to 20 μM, TeSR1, Matrigel. How it is done:
The experiments described in Example 1 were repeated with H-1152 (EMD Chemicals, Inc./Calbiochem; San Diego, Calif.) and Y-27632 (EMD Chemicals, Inc./Calbiochem). Briefly, H-1152 or Y-27632 was dissolved in DMSO to a concentration of 20 mM. H1 human ES cells were grown on Matrigel®—coated plates in TeSR™1 medium at a density of 100,000 cells per ml. H-1152 and Y-27632 were added to wells on their own plates at a final concentration of 20 μM, 15 μM, 10 μM or 5 μM in DMSO. DMSO and HA-100 (10 μM) were used as the negative and positive controls, respectively. The plates were treated every other day for a total of four days. Colony formation was detected with the ALP assay described above.
In a second experiment, H-1152 and Y-27632 were added to wells on their own plates at a final concentration of 5 μM, 500 nM, 50 nM or 5 nM in DMSO. DMSO and HA-100 (10 μM) were used as the negative and positive controls, respectively. The plates were treated as described above.

Assay [4] has as its system human ES cells. The assay is described as follows: Cloning efficiency in conditioned medium (CM). The class given is cell-based. As to conditions: CM substituted for TeSR1, otherwise identical treatment. How it is done: (§1) We have also tested these small molecules for effects on human ES cell cloning on other medium. We tested the effect on conditioned medium (CM) substituting TeSR™1 medium with CM and otherwise identical treatment. The cloning efficiency of the medium increased with addition of HA-100. In addition, we performed a similar test with unconditioned medium to which 100 ng/μl of bFGF had been added.

Assay [5] concerns human ES cells. The assay is described as follows: Cloning efficiency in unconditioned medium with added bFGF. The class given is cell-based. As to conditions: unconditioned medium with 100 ng/μl bFGF, compared to control cultures lacking HA-100. On the procedure:
as §1

The test system of a further assay is Oct4. The assay is described as follows: Oct4 immunofluorescence of cloned colonies. Type of assay: cell-based, human. Particulars: colonies from HA-100 treatment. An excerpt:
We also tested the resulting colonies from HA-100 treatment for the presence of Oct4, an intracellular marker for pluripotent ES cells.

Regarding quipazine dimaleate, the “result of small molecule screen (colony formation, ALP fluorescence)” value (“result of small molecule screen” below) in the assay on H1 human ES cells [1] is “hits”. Also, in the assay on H1 human ES cells [2], the “confirmation in 6-well assay as active in increasing cloning efficiency” value (shortened to “confirmation … in increasing cloning efficiency”) is given as “only HA-100 could be confirmed”.

For `Cl.N=C(N)NCCNS(=O)(=O)c1cccc2cnccc12` [HA-1004, N-(2-guanidinoethyl)-5-isoquinolinesulfonamide hydrochloride], the IC50 in the assay with PKG is 1.3 µM; in the assay on PKC, 40 µM; with PKA it was 2.3 µM. The “CFU+ (concentration range with colony forming units)” value in the assay on H1 human ES cells [2] (6-well plates, 10,000 cells per well, TeSR1, Matrigel, colonies counted after 10 days) was greater than 50.0 µM. For the same compound, the “max. CE (%)” value in the assay with H1 human ES cells [2] (TeSR1, Matrigel) was less than 1%.

Consider `C[C@@H](N)[C@H]1CC[C@H](C(=O)Nc2ccncc2)CC1` [Y-27632, (+)-(R)-trans-4-(1-aminoethyl)-N-(4-pyridyl)cyclohexanecarboxamide dihydrochloride], for which, in the assay on ROCK1/ROCK2, the IC50 was 0.8 µM. Also, the “colony formation by eye compared with HA-100 (at 10 μM)” value with H1 human ES cells [3] (concentrations above 5 μM) was “equal or better than HA-100”. Moreover, in the assay with H1 human ES cells [3], the “concentration showing the most colony formation with the ALP assay” value worked out at 5 µM.

On to `CC(C)CCC[C@@H](C)[C@H]1CC[C@H]2C3=CC[C@H]4C[C@@H](O)CC[C@]4(C)[C@H]3CC[C@]12C` [lathosterol], for which the “result of small molecule screen” value with H1 human ES cells [1] is recorded as “hits”. For the same compound, in the assay with H1 human ES cells [2], the “confirmation … in increasing cloning efficiency” value is recorded as “only HA-100 could be confirmed”.

In the case of `Cl.Cl.O=S(=O)(c1cccc2cnccc12)N1CCCNCC1` [HA-1077, 1-(5-isoquinolinesulfonyl)homopiperazine dihydrochloride], the “effect on cloning efficiency of human ES cells” value in the assay on H1 human ES cells [2] (related small molecules tested after HA-100) is given as “increased cloning efficiency”.

On to `O=S(=O)(c1cccc2cnccc12)N1CCNCC1` [HA-100, 1-(5-isoquinolinesulfonyl)piperazine hydrochloride], for which the “result of small molecule screen” value in the assay on H1 human ES cells [1] is “hits”. For the same compound, the “effect on cloning efficiency in conditioned medium” value with human ES cells [4] was “increased”. The “effect on cloning efficiency in unconditioned medium” value with human ES cells [5] was “increased cloning efficiency”. Moreover, in the assay on Oct4, the “Oct4 expression in cloned colonies (immunofluorescence)” value was “maintenance of Oct4 expression”. The IC50 in the assay with PKG is 4 µM; in the assay with PKC, 12 µM; in the assay with PKA, 8 µM. Besides, the “confirmation … in increasing cloning efficiency” value in the assay on H1 human ES cells [2] is recorded as “confirmed”. Further, the “max. CE (%)” value in the assay with H1 human ES cells [2] (TeSR1, Matrigel) stood at 2%.

As to `Cc1cncc2cccc(S(=O)(=O)N3CCCNC[C@@H]3C)c12` [H-1152, (S)-(+)-2-methyl-1-[(4-methyl-5-isoquinolinyl)sulfonyl]homopiperazine dihydrochloride], the “colony formation by eye compared with HA-100 (at 10 μM)” value in the assay with H1 human ES cells [3] (concentrations above 500 nM) is “equal or better than HA-100”. The “working concentration compared with HA-100” value with H1 human ES cells [3] (facilitating clonal growth) was “ten times lower”. In addition, in the assay on H1 human ES cells [3], the “concentration showing the most colony formation with the ALP assay” value stood at 0.5 µM.

As to `CC1CNCCN1S(=O)(=O)c1cccc2cnccc12` (centres unmarked) [H-7, 1-(5-isoquinolinesulfonyl)-2-methylpiperazine], the values for the IC50 in the assay with PKG, in the assay with PKC and in the assay with PKA were 5.8 µM, 6 µM and 3 µM, respectively. In the assay on H1 human ES cells [2] (TeSR1, Matrigel), the “max. CE (%)” value is less than 1%.

As to `CC1CN(S(=O)(=O)c2cccc3cnccc23)CCN1` (centres unmarked) [iso H-7, 1-(5-isoquinolinesulfonyl)-3-methylpiperazine], the IC50 in the assay on PKG was greater than 5.8 µM; in the assay on PKC, greater than 6 µM; with PKA it was greater than 3 µM. For the same compound, the “max. CE (%)” value with H1 human ES cells [2] (TeSR1, Matrigel) is recorded as less than 1%.

With `O=S(=O)(NCCNC/C=C/c1ccc(Br)cc1)c1cccc2cnccc12` [H-89, N-[2-p-bromo-cinnamylamino)ethyl]-5-isoquinolinesulfonamide dihydrochloride], the IC50 is 0.48 µM in the assay with PKG and 31.7 µM in the assay with PKC. In the assay with H1 human ES cells [2] (TeSR1, Matrigel), the “max. CE (%)” value was found to be 2.5%.

Take `CC1(C)OC(=O)C=CC2(C)C1CC(O)C1(C)C2CCC2(C)C(c3ccoc3)OC(=O)C3OC321` (centres unmarked) [obacunol]: in the assay on H1 human ES cells [1], the “result of small molecule screen” value is recorded as “hits”. Besides, in the assay with H1 human ES cells [2], the “confirmation … in increasing cloning efficiency” value is reported as “only HA-100 could be confirmed”.
